From the supplement of paper PMC12076712

Columns and labels:
Experiment in all cases: pIC50, kinobeads binding competition
MAP4K5 = MAP4K5 (UniProt Q9Y4K4)
In short: (§1)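 To obtain pIC50, fold changes versus vehicle were fitted to logistic dose-response curves (R drc package) across biological duplicates. Protein binding to Kinobeads was quantified by TMT10 LC-MS/MS of digested bead-bound proteins. Treatments used nine concentrations with a top of 30 μM, applied to live Jurkat cells in 1:4 steps for 60 min at 37 °C before lysis, or to Jurkat lysate or a 1:1:1:1 HEK293/K-562/HepG2/placenta lysate mix in 1:5 steps for 60 min at 4 °C.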

FGR = FGR (UniProt P09769)
In short: as §1

MYLK = MYLK (UniProt Q15746); details: cell material: Lysate mix
In short: as §1

UniProt Q9NYV4 = biological target: UniProt Q9NYV4
In short: as §1

UniProt P35626 = biological target: T1, UniProt P35626
T1 sequence (whole entry): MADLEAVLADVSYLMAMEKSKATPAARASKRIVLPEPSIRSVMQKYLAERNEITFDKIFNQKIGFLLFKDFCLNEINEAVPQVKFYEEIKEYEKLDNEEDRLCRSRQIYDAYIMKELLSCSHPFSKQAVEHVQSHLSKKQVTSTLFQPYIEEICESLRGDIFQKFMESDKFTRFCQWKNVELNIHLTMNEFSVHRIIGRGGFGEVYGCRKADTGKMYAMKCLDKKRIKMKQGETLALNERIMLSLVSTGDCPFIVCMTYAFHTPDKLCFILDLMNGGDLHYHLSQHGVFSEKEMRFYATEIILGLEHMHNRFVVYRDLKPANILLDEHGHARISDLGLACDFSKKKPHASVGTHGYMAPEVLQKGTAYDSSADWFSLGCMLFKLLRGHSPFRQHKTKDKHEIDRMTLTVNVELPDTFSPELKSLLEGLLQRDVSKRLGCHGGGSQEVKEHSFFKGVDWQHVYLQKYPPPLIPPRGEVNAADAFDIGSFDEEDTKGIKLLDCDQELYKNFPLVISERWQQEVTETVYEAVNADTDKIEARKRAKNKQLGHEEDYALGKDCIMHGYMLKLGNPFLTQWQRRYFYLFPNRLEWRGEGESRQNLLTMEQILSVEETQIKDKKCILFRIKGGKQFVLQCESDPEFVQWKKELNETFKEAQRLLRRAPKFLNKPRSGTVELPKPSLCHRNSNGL
In short: as §1

UniProt Q9Y2U5 = biological target: T2, UniProt Q9Y2U5
T2 sequence (whole entry): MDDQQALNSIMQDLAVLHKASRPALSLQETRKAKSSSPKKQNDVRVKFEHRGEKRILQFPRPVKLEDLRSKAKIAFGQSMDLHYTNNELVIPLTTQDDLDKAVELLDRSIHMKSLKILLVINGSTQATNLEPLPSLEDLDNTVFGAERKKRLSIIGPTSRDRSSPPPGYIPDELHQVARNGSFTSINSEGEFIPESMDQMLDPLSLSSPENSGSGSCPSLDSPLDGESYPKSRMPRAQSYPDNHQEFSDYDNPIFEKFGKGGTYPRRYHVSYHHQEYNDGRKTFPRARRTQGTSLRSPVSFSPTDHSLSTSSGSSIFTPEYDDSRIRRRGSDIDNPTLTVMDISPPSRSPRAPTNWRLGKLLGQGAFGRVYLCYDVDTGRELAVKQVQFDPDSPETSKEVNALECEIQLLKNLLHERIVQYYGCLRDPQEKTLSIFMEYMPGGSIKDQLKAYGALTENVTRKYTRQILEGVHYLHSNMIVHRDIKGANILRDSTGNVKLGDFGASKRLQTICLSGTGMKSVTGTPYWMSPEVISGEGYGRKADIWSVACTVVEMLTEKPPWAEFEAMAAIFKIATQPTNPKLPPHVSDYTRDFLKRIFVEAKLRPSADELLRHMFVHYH
In short: as §1

UniProt Q8NI60 = biological target: UniProt Q8NI60
In short: as §1

UniProt P07947 = biological target: UniProt P07947
In short: as §1

IRAK4 = biological target: T3, IRAK4 (UniProt Q9NWZ3)
T3 sequence (whole entry): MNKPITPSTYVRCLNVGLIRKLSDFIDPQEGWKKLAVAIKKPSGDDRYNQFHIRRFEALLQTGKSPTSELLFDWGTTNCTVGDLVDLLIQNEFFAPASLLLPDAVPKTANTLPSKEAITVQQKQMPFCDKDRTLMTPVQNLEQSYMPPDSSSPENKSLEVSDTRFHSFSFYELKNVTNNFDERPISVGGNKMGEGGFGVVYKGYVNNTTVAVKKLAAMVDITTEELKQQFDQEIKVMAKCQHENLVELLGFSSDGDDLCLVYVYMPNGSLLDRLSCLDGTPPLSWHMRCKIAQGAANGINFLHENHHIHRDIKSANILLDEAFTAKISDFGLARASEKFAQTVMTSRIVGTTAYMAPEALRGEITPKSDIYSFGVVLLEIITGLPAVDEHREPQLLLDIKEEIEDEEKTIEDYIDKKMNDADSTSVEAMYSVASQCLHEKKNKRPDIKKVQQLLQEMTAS
In short: as §1

UniProt O94768 = biological target: T4, UniProt O94768
T4 sequence (whole entry): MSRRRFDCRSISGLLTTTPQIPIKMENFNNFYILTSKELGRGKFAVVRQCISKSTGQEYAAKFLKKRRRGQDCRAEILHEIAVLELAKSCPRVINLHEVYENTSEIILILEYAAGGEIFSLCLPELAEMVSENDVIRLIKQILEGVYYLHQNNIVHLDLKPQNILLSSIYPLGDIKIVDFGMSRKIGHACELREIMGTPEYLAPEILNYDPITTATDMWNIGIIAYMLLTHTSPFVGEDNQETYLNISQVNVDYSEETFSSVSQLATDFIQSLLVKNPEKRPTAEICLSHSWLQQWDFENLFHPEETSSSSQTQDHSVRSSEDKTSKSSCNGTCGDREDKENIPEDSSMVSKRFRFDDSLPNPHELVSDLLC
In short: as §1

UniProt P07947, sequence (P07947 whole entry, looked up): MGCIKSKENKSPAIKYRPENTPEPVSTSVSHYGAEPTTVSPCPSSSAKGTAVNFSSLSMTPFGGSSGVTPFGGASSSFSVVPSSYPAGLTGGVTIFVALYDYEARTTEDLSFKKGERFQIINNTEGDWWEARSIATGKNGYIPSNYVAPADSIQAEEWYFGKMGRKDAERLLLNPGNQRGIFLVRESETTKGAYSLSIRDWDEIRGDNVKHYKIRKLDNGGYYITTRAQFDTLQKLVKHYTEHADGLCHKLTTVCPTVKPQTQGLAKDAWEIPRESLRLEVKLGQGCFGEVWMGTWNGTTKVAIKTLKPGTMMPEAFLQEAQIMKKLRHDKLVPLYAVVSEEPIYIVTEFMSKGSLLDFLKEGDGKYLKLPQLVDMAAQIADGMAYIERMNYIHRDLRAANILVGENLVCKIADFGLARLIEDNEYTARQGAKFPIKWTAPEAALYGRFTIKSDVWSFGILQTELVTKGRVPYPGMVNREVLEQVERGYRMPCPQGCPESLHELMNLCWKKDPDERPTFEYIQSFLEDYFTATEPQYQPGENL
UniProt Q8NI60, sequence (Q8NI60 whole entry, looked up): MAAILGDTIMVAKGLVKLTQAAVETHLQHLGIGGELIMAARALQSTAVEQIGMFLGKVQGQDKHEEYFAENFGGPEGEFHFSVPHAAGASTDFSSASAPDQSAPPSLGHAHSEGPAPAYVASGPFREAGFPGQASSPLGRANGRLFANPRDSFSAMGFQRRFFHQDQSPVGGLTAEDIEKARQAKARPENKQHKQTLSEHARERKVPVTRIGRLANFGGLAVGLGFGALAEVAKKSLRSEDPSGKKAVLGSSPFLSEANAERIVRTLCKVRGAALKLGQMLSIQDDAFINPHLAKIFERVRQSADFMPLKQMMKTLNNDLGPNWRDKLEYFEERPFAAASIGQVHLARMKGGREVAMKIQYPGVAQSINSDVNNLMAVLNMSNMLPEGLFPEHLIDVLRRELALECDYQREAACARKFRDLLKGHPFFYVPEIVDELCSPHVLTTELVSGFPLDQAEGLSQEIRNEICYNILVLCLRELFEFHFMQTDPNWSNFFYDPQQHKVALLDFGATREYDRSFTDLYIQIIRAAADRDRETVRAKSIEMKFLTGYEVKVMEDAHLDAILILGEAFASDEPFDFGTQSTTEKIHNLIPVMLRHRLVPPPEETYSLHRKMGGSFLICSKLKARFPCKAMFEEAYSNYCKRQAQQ
FGR, sequence (P09769 whole entry, looked up): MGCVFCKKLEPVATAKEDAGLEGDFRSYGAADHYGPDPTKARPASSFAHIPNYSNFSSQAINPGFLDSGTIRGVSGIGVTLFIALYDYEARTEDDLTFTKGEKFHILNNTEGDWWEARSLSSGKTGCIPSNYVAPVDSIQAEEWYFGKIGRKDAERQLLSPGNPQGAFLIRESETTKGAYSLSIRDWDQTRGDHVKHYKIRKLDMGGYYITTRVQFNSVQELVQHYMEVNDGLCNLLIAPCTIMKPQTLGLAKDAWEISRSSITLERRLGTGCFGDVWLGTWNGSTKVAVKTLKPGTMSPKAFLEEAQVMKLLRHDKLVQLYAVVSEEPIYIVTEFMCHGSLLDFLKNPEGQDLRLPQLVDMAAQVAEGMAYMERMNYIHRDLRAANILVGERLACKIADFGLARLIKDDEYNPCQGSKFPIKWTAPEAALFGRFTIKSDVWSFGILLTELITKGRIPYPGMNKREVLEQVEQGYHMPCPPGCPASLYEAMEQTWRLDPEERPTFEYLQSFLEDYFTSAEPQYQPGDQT
MYLK, sequence (Q15746 whole entry): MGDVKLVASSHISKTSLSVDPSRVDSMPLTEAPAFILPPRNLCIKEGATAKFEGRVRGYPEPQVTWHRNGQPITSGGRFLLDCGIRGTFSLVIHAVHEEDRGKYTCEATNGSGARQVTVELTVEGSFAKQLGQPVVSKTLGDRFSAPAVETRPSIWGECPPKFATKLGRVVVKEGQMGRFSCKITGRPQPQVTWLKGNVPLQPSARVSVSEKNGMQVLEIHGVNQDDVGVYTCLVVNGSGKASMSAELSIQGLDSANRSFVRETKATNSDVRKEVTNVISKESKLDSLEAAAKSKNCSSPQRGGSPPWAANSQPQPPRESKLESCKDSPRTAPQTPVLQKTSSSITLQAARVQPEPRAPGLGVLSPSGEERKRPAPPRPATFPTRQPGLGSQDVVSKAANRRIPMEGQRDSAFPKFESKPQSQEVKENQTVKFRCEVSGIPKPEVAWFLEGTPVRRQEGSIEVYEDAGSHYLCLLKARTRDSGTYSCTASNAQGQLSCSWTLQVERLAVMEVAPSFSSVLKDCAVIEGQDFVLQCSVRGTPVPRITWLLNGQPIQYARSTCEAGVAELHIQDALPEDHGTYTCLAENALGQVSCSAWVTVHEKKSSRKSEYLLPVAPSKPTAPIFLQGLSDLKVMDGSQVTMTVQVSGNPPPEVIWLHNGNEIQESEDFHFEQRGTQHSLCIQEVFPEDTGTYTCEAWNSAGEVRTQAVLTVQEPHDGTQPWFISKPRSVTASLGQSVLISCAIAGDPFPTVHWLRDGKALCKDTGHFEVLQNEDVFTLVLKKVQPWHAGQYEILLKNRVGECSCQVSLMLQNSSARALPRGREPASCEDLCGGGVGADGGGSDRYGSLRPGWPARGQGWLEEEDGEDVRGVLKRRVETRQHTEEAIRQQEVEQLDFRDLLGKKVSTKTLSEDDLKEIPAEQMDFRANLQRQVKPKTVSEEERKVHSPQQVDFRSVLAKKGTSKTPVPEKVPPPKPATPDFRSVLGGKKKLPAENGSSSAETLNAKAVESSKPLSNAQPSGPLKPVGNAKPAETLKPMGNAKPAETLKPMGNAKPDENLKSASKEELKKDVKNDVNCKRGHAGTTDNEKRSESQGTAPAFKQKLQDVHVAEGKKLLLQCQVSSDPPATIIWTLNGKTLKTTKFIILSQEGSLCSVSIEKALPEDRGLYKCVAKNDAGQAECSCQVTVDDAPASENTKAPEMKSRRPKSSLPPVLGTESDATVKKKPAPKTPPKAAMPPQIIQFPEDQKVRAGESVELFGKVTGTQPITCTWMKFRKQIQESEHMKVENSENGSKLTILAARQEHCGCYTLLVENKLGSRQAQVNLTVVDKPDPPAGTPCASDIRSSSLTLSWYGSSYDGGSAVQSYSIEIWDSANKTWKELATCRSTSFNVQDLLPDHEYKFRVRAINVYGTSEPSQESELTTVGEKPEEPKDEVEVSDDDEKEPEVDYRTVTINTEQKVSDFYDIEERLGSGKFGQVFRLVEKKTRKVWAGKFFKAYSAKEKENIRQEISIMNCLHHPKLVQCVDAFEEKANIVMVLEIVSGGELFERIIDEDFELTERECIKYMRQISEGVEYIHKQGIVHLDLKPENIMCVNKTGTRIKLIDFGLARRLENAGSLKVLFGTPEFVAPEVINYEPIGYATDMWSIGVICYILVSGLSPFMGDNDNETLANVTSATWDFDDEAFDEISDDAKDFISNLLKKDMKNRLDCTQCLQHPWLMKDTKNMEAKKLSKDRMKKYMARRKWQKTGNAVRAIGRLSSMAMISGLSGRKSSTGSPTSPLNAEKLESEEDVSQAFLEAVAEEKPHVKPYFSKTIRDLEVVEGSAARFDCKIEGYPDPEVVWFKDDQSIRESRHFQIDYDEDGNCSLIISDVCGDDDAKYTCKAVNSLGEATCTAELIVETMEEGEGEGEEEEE
MAP4K5, sequence (Q9Y4K4 whole entry, looked up): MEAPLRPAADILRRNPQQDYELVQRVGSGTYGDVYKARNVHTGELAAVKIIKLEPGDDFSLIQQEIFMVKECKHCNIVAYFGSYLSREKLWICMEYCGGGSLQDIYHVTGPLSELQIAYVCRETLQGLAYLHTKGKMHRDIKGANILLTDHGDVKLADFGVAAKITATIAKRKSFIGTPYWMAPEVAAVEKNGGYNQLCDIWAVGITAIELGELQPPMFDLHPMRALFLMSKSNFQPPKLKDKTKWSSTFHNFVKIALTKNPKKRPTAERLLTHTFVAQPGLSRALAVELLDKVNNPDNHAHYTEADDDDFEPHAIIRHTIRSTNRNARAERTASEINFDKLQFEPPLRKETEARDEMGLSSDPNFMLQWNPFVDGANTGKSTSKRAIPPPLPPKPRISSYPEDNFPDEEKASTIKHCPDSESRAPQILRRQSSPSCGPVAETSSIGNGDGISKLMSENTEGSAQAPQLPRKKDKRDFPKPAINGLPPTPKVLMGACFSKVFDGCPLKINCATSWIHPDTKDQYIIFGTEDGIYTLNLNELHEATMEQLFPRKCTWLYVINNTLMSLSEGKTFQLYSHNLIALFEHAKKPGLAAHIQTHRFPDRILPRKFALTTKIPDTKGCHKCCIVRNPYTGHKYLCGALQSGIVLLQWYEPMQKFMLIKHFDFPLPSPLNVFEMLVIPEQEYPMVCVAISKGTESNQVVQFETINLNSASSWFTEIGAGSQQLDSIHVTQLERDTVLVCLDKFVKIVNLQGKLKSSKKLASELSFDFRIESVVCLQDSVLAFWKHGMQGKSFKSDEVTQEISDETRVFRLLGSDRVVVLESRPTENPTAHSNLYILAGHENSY

pIC50 (MAP4K5; cell material: Lysate mix) | pIC50 (FGR; cell material: Lysate mix) | pIC50 (MYLK) | pIC50 (UniProt Q9NYV4; cell material: Lysate mix) | pIC50 (UniProt P35626; cell material: Lysate mix) | pIC50 (UniProt Q9Y2U5; cell material: Lysate mix) | pIC50 (UniProt Q8NI60; cell material: Lysate mix) | pIC50 (UniProt P07947; cell material: Lysate mix) | pIC50 (IRAK4; cell material: Lysate mix) | pIC50 (UniProt O94768; cell material: Lysate mix) | pIC50 (FGR; cell material: Jurkat cells) | pIC50 (UniProt Q9NYV4; cell material: Jurkat lysate) | pIC50 (UniProt Q9Y2U5; cell material: Jurkat lysate) | pIC50 (UniProt O94768; cell material: Jurkat cells) | SMILES | pIC50 (MAP4K5; cell material: Jurkat cells) | pIC50 (MAP4K5; cell material: Jurkat lysate) | pIC50 (FGR; cell material: Jurkat lysate) | pIC50 (UniProt Q9NYV4; cell material: Jurkat cells) | pIC50 (UniProt P35626; cell material: Jurkat lysate) | pIC50 (UniProt Q9Y2U5; cell material: Jurkat cells) | pIC50 (UniProt Q8NI60; cell material: Jurkat cells) | pIC50 (UniProt Q8NI60; cell material: Jurkat lysate) | pIC50 (UniProt P07947; cell material: Jurkat cells) | pIC50 (UniProt P07947; cell material: Jurkat lysate) | pIC50 (IRAK4; cell material: Jurkat cells) | pIC50 (IRAK4; cell material: Jurkat lysate) | pIC50 (UniProt O94768; cell material: Jurkat lysate) | pIC50 (UniProt P35626; cell material: Jurkat cells)
< 4.52 | < 4.52 | < 4.52 | < 4.52 | < 4.52 | < 4.52 | < 4.52 | 5.25 | < 4.52 | < 4.52 |  |  |  |  | Cc1cc(Nc2cc(C(=O)NCCNC(=O)OC3CC/C=C/CCC3)nc(N3CCN(Cc4ccc(S(=O)(=O)F)cc4)CC3)n2)n[nH]1 (centres undefined) |  |  |  |  |  |  |  |  |  |  |  |  |  | 
5.53 | 5.51 | < 4.52 | < 4.52 | < 4.52 | 4.82 | < 4.52 | 6.3 | < 4.52 | < 4.52 |  |  |  |  | C#CCNC(=O)c1cc(Nc2cc(C)[nH]n2)nc(N2CCN(Cc3ccc(S(=O)(=O)F)cc3)CC2)n1 |  |  |  |  |  |  |  |  |  |  |  |  |  | 
< 4.52 |  | < 4.52 | < 4.52 | < 4.52 | < 4.52 | < 4.52 | 5.24 | < 4.52 | < 4.52 | 5.92 | < 4.52 | < 4.52 | < 4.52 | O=C(NCCNC(=O)c1cc(Nc2cc(C3CC3)[nH]n2)nc(N2CCN(Cc3ccc(S(=O)(=O)F)cc3)CC2)n1)OC1CC/C=C/CCC1 (centres undefined) | 5.8 | < 4.52 | < 4.52 | 5.85 | < 4.52 | 5.38 | < 4.52 | < 4.52 | 6.18 | 4.62 | 5.24 | < 4.52 | < 4.52 | 
5.33 | 5.92 | < 4.52 | < 4.52 | < 4.52 | 4.67 | < 4.52 | 7.16 | < 4.52 | < 4.52 |  |  |  |  | CCNC(=O)c1cc(Nc2cc(C)[nH]n2)nc(N2CCN(Cc3ccc(S(=O)(=O)F)cc3)CC2)n1 |  |  |  |  |  |  |  |  |  |  |  |  |  | 
5.77 | 5.92 | < 4.52 | 4.9 | < 4.52 | 5.29 | < 4.52 | 6.44 | 5.19 | < 4.52 |  |  |  |  | CCNC(=O)c1cc(Nc2cc(C3CC3)[nH]n2)nc(N2CCN(Cc3ccc(S(=O)(=O)F)cc3)CC2)n1 |  |  |  |  |  |  |  |  |  |  |  |  |  | 

SMILES | pIC50 (MAP4K5; cell material: Lysate mix) | pIC50 (FGR; cell material: Lysate mix) | pIC50 (MYLK) | pIC50 (UniProt Q9NYV4; cell material: Lysate mix) | pIC50 (UniProt P35626; cell material: Lysate mix) | pIC50 (UniProt Q9Y2U5; cell material: Lysate mix) | pIC50 (UniProt Q8NI60; cell material: Lysate mix) | pIC50 (UniProt P07947; cell material: Lysate mix) | pIC50 (IRAK4; cell material: Lysate mix) | pIC50 (UniProt O94768; cell material: Lysate mix) | pIC50 (FGR; cell material: Jurkat cells) | pIC50 (UniProt Q9NYV4; cell material: Jurkat lysate) | pIC50 (UniProt Q9Y2U5; cell material: Jurkat lysate) | pIC50 (UniProt O94768; cell material: Jurkat cells) | pIC50 (MAP4K5; cell material: Jurkat cells) | pIC50 (MAP4K5; cell material: Jurkat lysate) | pIC50 (FGR; cell material: Jurkat lysate) | pIC50 (UniProt Q9NYV4; cell material: Jurkat cells) | pIC50 (UniProt P35626; cell material: Jurkat lysate) | pIC50 (UniProt Q9Y2U5; cell material: Jurkat cells) | pIC50 (UniProt Q8NI60; cell material: Jurkat cells) | pIC50 (UniProt Q8NI60; cell material: Jurkat lysate) | pIC50 (UniProt P07947; cell material: Jurkat cells) | pIC50 (UniProt P07947; cell material: Jurkat lysate) | pIC50 (IRAK4; cell material: Jurkat cells) | pIC50 (IRAK4; cell material: Jurkat lysate) | pIC50 (UniProt O94768; cell material: Jurkat lysate) | pIC50 (UniProt P35626; cell material: Jurkat cells)
C#CCNC(=O)c1cc(Nc2cc(C3CC3)[nH]n2)nc(N2CCN(Cc3ccc(S(=O)(=O)F)cc3)CC2)n1 | 6.21 | 6.2 | < 4.52 | 5.34 |  | 5.47 | < 4.52 | 6.62 | 5.06 | < 4.52 |  |  |  |  | 6.45 | 5.53 | 5.6 | 6.33 | < 4.52 | 5.84 | < 4.52 | < 4.52 | 6.61 | 5.84 | 6.03 | 4.62 | < 4.52 | 5.77
